Reference: ChEMBL document CHEMBL5370562, “Synthesis and evaluation of Fmoc-amino esters and amides bearing a substrate like quaternary ammonium group as selective butyrylcholinesterase inhibitors” (Bioorg Med Chem Lett, 2023)
Calls of active or inactive are those of the source. The rule behind the calls is not given here.

Experiments:
[1] = target: T1, Cholinesterase (Equus caballus, UniProt P81908); test: Inhibition of equine serum BuChE using S-butyrylthiocholine iodide as substrate and measured for 60 secs by Ellman's method; type: cell-free
[2] = Drug metabolism in sodium phosphate buffer assessed as compound hydrolysis at 10XIC50 measured after 24 hrs by HPLC analysis; type: ADME; conditions: read-out: Drug metabolism
[3] = target: BuChE (butyrylcholinesterase) (Equus caballus, UniProt P81908); test: (§1) Substrate activity at equine serum BuChE assessed as compound hydrolysis at 10XIC50 measured after 1 hr by HPLC analysis; type: ADME, cell-free; conditions: horse, equine serum butyrylcholinesterase (BuChE), read-out: Drug metabolism
[4] = target: Cholinesterase (Equus caballus) (UniProt P81908); test: Inhibition of equine serum BuChE assessed as residual enzyme activity at 20 uM using S-butyrylthiocholine iodide as substrate and measured for 60 secs by spectrophotometric analysis relative to control; type: cell-free; conditions: time 60.0 sec
[5] = target: Acetylcholinesterase (Electrophorus electricus) (UniProt O42275); test: Inhibition of electric eel AChE at 50 uM using acetylthiocholine iodide as substrate and measured for 1 min by spectrophotometrc analysis relative to control
[6] = target: T2, Trypsin (Homo sapiens) (UniProt P07477+P07478+P35030); test: Inhibition of trypsin (unknown origin) assessed as residual enzyme activity at 10 uM using 4-nitrophenyl acetate as substrate and measured for 1 min by spectrophotometric analysis relative to control; type: protein assay
[7] = target: Cholinesterase (Equus caballus) (UniProt P81908); test: Inhibition of equine serum BuChE assessed as residual enzyme activity at 50 uM using S-butyrylthiocholine iodide as substrate and measured for 60 secs by spectrophotometric analysis relative to control; type: cell-free; conditions: time 60.0 sec
[8] = target: Cholinesterase (Equus caballus) (UniProt P81908); test: Inhibition of equine serum BuChE assessed as residual enzyme activity at 10 uM using S-butyrylthiocholine iodide as substrate and measured for 60 secs by spectrophotometric analysis relative to control; type: cell-free; conditions: time 60.0 sec
[9] = target: T2, Trypsin (Homo sapiens); test: Inhibition of trypsin (unknown origin) assessed as residual enzyme activity at 50 uM using 4-nitrophenyl acetate as substrate and measured for 1 min by spectrophotometric analysis relative to control; type: protein assay
[10] = target: Acetylcholinesterase (Electrophorus electricus) (UniProt O42275); test: Inhibition of electric eel AChE assessed as residual enzyme activity at 50 uM using acetylthiocholine iodide as substrate and measured for 1 min by spectrophotometrc analysis relative to control
[11] = target: T1, Cholinesterase; test: as §1; type: ADME, cell-free; conditions: horse, serum, 1 h
[12] = target: T2, Trypsin (Homo sapiens); test: Inhibition of trypsin (unknown origin) assessed as residual enzyme activity at 20 uM using 4-nitrophenyl acetate as substrate and measured for 1 min by spectrophotometric analysis relative to control; type: protein assay
[13] = target: Acetylcholinesterase (Electrophorus electricus) (UniProt O42275); test: Inhibition of electric eel AChE assessed as residual enzyme activity at 20 uM using acetylthiocholine iodide as substrate and measured for 1 min by spectrophotometrc analysis relative to control
[14] = target: Acetylcholinesterase (Electrophorus electricus) (UniProt O42275); test: Inhibition of electric eel AChE assessed as residual enzyme activity at 10 uM using acetylthiocholine iodide as substrate and measured for 1 min by spectrophotometrc analysis relative to control
[15] = target: Cholinesterase (Equus caballus) (UniProt P81908); test: Reversible inhibition of equine serum BuChE assessed as residual enzyme activity at IC50 using S-butyrylthiocholine iodide as substrate preincubated with enzyme for 60 mins followed by 80-fold dilution with BTC and DTNB and measured for 1 min by spectrophotometric analysis relative to control; type: cell-free; conditions: time 61.0 min
[16] = target: T2, Trypsin (Homo sapiens); test: Inhibition of trypsin (unknown origin) at 50 uM using 4-nitrophenyl acetate as substrate and measured for 1 min by spectrophotometric analysis relative to control; type: protein assay
[17] = target: Acetylcholinesterase (Electrophorus electricus) (UniProt O42275); test: Inhibition of electric eel AChE at 100XIC50 for BuChE using acetylthiocholine iodide as substrate and measured for 1 min by spectrophotometrc analysis
[18] = target: Acetylcholinesterase (Electrophorus electricus) (UniProt O42275); test: Inhibition of electric eel AChE at 25XIC50 for BuChE using acetylthiocholine iodide as substrate and measured for 1 min by spectrophotometrc analysis relative to control
[19] = target: Cholinesterase (Equus caballus) (UniProt P81908); test: Irreversible inhibition of equine serum BuChE assessed as residual enzyme activity at IC50 using S-butyrylthiocholine iodide as substrate preincubated with enzyme for 60 mins followed by 80-fold dilution with BTC and DTNB and measured for 1 min by spectrophotometric analysis relative to control; type: cell-free; conditions: time 61.0 min

T1 sequence (P81908 whole entry): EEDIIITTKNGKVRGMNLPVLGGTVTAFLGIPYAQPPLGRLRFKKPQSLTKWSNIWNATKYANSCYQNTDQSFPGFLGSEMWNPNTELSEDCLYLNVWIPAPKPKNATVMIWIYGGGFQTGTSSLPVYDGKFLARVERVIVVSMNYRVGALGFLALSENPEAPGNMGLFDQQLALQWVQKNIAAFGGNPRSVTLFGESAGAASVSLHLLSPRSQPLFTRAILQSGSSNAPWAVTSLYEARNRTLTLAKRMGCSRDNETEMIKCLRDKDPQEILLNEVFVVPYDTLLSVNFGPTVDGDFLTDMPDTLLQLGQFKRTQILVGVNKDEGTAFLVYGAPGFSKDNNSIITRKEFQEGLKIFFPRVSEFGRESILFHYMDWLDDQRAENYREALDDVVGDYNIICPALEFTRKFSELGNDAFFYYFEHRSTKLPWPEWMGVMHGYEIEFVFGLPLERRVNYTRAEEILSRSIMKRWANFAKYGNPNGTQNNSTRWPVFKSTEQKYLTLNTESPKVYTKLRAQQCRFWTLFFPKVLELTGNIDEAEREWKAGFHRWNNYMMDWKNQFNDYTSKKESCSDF
Cholinesterase (Equus caballus), sequence (P81908 whole entry): as above
BuChE (butyrylcholinesterase), sequence (P81908 whole entry): as above
Acetylcholinesterase (Electrophorus electricus), sequence (O42275 24-633 limits assumed): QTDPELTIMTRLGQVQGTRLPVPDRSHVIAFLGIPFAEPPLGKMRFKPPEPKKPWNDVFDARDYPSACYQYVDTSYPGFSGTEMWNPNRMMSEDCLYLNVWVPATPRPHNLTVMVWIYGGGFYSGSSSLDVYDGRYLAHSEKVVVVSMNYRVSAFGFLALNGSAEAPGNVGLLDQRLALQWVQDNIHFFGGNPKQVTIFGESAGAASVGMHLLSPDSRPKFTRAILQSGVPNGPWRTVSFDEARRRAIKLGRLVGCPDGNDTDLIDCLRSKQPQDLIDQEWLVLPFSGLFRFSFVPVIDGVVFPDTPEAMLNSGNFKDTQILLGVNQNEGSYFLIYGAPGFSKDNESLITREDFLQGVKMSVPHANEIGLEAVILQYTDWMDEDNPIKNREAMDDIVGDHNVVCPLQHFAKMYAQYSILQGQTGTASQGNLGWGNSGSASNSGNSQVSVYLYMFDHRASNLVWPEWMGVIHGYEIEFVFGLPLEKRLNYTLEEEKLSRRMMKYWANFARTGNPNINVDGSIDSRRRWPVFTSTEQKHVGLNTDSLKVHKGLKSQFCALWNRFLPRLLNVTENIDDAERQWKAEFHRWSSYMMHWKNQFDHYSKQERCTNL

Row | Structure (SMILES) | IC50 [1] [µM] | degraded at 24 h [2] [%] | metabolised at 1 h [3] [%] | Ratio [4] | Ratio [6] | Ratio [7] | Ratio [8] | Ratio [9] | Ratio [10] | Drug metabolism [11] | Ratio [12] | Ratio [13] | Ratio [14] | Ratio [15] | inhibition [16] [%] | inhibition [17] | further results
1 | CC(C)(C)OC(=O)NCCCC[C@H](NC(=O)OCC1c2ccccc2-c2ccccc21)C(=O)O | 41 | – | – | – | – | – | – | – | – | – | – | – | – | – | – | – | –
2 | C[N+](C)(C)CCOC(=O)CNC(=O)OCC1c2ccccc2-c2ccccc21 | 6.7 | ~20 | ~100 | – | – | – | – | – | – | – | – | – | – | – | – | – | –
3 | C[N+](C)(C)CCNC(=O)[C@H](Cc1ccccc1)NC(=O)OCC1c2ccccc2-c2ccccc21.[I-] | 0.6 | – | – | 0.03 | 1.01 | 0.02 | 0.07 | 0.95 | 0.89 | Metabolite_Notdetected | 1.01 | 0.99 | 0.97 | 1.01 | < 5 | Active | inhibition [5]: 10%
4 | C[C@H](NC(=O)OCC1c2ccccc2-c2ccccc21)C(=O)OCC[N+](C)(C)C | 5.1 | ~20 | ~25 | – | – | – | – | – | – | – | – | – | – | – | – | – | –
5 | CC(C)(C)OC(=O)n1cc(C[C@H](NC(=O)OCC2c3ccccc3-c3ccccc32)C(=O)NCC[N+](C)(C)C)c2ccccc21.[I-] | 0.17 | – | – | 0.02 | 1 | < 0.01 | 0.04 | 0.94 | 0.68 | Metabolite_Notdetected | 0.93 | 0.87 | 0.96 | 0.99 | < 5 | Active | inhibition [5]: 30%; inhibition [18]: 10%
6 | C[N+](C)(C)CCOC(=O)[C@H](Cc1ccccc1)NC(=O)OCC1c2ccccc2-c2ccccc21 | 1 | ~20 | ~100 | – | – | – | – | – | – | – | – | – | – | – | – | – | –
7 | CC(C)(C)OC(=O)n1cc(C[C@H](NC(=O)OCC2c3ccccc3-c3ccccc32)C(=O)OCC[N+](C)(C)C)c2ccccc21 | 0.4 | ~20 | ~25 | – | – | – | – | – | – | – | – | – | – | – | – | – | –
8 | O=C(N[C@@H](Cc1ccccc1)C(=O)O)OCC1c2ccccc2-c2ccccc21 | 320 | – | – | – | – | – | – | – | – | – | – | – | – | – | – | – | –
9 | CC(C)C[C@H](NC(=O)OCC1c2ccccc2-c2ccccc21)C(=O)O | 134 | – | – | – | – | – | – | – | – | – | – | – | – | – | – | – | –
10 | CC(C)C[C@H](NC(=O)OCC1c2ccccc2-c2ccccc21)C(=O)OCC[N+](C)(C)C | 0.7 | ~20 | ~50 | – | – | – | – | – | – | – | – | – | – | – | – | – | –
11 | CC(C)(C)OC(=O)NCCCC[C@H](NC(=O)OCC1c2ccccc2-c2ccccc21)C(=O)OCC[N+](C)(C)C | 0.5 | ~20 | ~25 | – | – | – | – | – | – | – | – | – | – | – | – | – | –
12 | CC(C)(C)OC(=O)NCCCC[C@H](NC(=O)OCC1c2ccccc2-c2ccccc21)C(=O)NCC[N+](C)(C)C.[I-] | 0.14 | – | – | 0.03 | 1 | 0.01 | 0.06 | 0.97 | 0.81 | Metabolite_Notdetected | 0.95 | 1 | 1.01 | 1.04 | < 5 | Active | inhibition [5]: 20%
13 | C[N+](C)(C)CCNC(=O)CNC(=O)OCC1c2ccccc2-c2ccccc21.[I-] | 3.7 | – | – | 0.21 | 0.96 | 0.07 | 0.36 | 1.06 | 0.84 | Metabolite_Notdetected | 0.96 | 0.95 | 0.99 | 1 | < 5 | Active | inhibition [5]: 10%
14 | C[C@H](NC(=O)OCC1c2ccccc2-c2ccccc21)C(=O)NCC[N+](C)(C)C.[I-] | 7.5 | – | – | 0.31 | 1.01 | 0.13 | 0.44 | 0.98 | 0.94 | Metabolite_Notdetected | 1.04 | 0.97 | 1 | 1.02 | < 5 | Active | –
15 | CC(C)(C)OC(=O)n1cc(C[C@H](NC(=O)OCC2c3ccccc3-c3ccccc32)C(=O)O)c2ccccc21 | 23 | – | – | – | – | – | – | – | – | – | – | – | – | – | – | – | –
16 | O=C(O)CNC(=O)OCC1c2ccccc2-c2ccccc21 | ≥ 200 | – | – | – | – | – | – | – | – | – | – | – | – | – | – | – | –
17 | O=S(=O)(F)Cc1ccccc1 | – | – | – | – | < 0.01 | – | < 0.01 | – | – | – | – | – | < 0.01 | – | – | – | Ratio [19]: 0.01
18 | C[C@H](NC(=O)OCC1c2ccccc2-c2ccccc21)C(=O)O | ≥ 200 | – | – | – | – | – | – | – | – | – | – | – | – | – | – | – | –
19 | CC(C)C[C@H](NC(=O)OCC1c2ccccc2-c2ccccc21)C(=O)NCC[N+](C)(C)C.[I-] | 1.8 | – | – | 0.11 | 1.05 | 0.03 | 0.21 | 0.99 | 0.92 | Metabolite_Notdetected | 0.99 | 1.01 | 1 | 1.01 | < 5 | Active | –
